In US20170367390A1, “USE OF ELLAGIC ACID DIHYDRATE IN FOOD PRODUCTS AND NUTRACEUTICALS” (HALO LIFE SCIENCE, LLC, priority 2014, published 2017):
Entries after “also recorded” stand apart in the source; their conditions may differ.

Columns and labels:
Format in all cases: cell-based, mouse
p44/42 MAPK = experiment: p44/42 MAPK:Phos p44/42 MAPK ratio by immunocytochemistry, high-content imaging in C2C12; conditions: serum starved C2C12, 30 minutes; 400 nM, 0.04 nM
Description: Stimulation of AKT pathways and MAPK pathways in ellagic acid dihydrate, metformin, and insulin treated cell cultures was performed. Insulin stimulates glucose uptake into cells by increasing GLUT4 activation, and AKT, specifically phos-AKT, signaling alters GLUT4 translocation. […] Cellular assays were performed using mouse myoblast C2C12 cells. Relative protein levels of AKT:phos AKT and p44/42 MAPK:phos p44/42 MAPK were determined.
Serum starved cells (1 hr) were treated for 30 minutes with each of the tested compounds. Ratios of phosphorylated to non-phosphorylated proteins were determined using immunocytochemistry labeling (anti-AKT, anti-Phos AKT; or anti-p44/42 MAPK, anti-Phos p44/42 MAPK) on a high-content imaging system (Operetta, Perkin Elmer) using the fluorescent signal of anti-rabbit Alexa 647. Increased phosphorylation is indicated as decrease in signal of AKT:Phos AKT ratio (log 2 scale) and p44/42 MAPK:Phos p44/42 MAPK ratio (log 2 scale) relative to vehicle treated cells.

GLUT4-GFP = experiment: Localization of glucose transporter GLUT4-GFP, time-lapse confocal microscopy in C2C12
Description: Induction of glucose transporter, GLUT-4, in ellagic acid dihydrate treated cell cultures was studied. Cellular assays were performed using mouse myoblast C2C12 cells. The cells were infected with a fusion glucose transporter 4 green fluorescent protein (GLUT4-GFP). This protein allows the visualization of GLUT4 by imaging the GFP under fluorescent time-lapse microscopy. Frames were compiled to produce time-lapse images of cellular changes with no treatment or treatment with insulin. The localization of glucose transporter (GLUT4-GFP) was performed in final incubation volume of 505 μL, consisting of 500 μl of Hank's Buffer (Invitrogen) and 5 μl of tested compounds. Insulin was used as positive controls and vehicle (0.1% DMSO) as the negative control. All test compounds were prepared in 10% DMSO and diluted 1:100 for a final concentration of 0.1% DMSO (vehicle). The cells were rinsed in Hank's Buffer thrice and then incubated in Hank's Buffer at 37° C. for one hour. The test compounds were added (ellagic acid dihydrate, insulin, or vehicle) and the cells were imaged using laser-confocal microscopy (Leica TCS SP5 X) with FITC fluorescent filters to determine changes in GLUT4-GFP localization. Time-lapse images (TIF) were collected and post-processed using Image-J (NIH) for video construction.

MEF cells [1] = experiment: Glucose uptake, 2-NBDG labeling, high-content imaging (Operetta), MEFs
Description: (§1) Increased glucose uptake was indicated as increasing signal of 2-NBDG ([…]) in cells. Glucose uptake assays were carried out in a final incubation volume of 50 μl consisting of, 2-NBDG), (100 μM) in 1× Phosphate Buffered Saline w/Ca+, Mg+ (PBS++). The same buffer was used for washing cells. Insulin was used as a positive control. All testing compounds were prepared in 10% DMSO and diluted 1:100 for a final concentration of 0.1% DMSO (vehicle). Cells were culture to 70-90% confluence and then washed twice with PBS++. Cells were incubated for 30 minutes at 37° C. in PBS++. Nuclear stain, HCS CellMask stain (blue, Invitrogen), and/or testing compounds (ellagic acid dihydrate, insulin, or vehicle) were added. Cells were incubated for 30 min at 37° C. Cells were washed twice with PBS++ and incubated with 2-NBDG for 10 minutes. Cells were washed thrice with PBS++ and then imaged in PBS++. Alternatively, the final PBS wash was removed and cells were incubated with Accutase (Invitrogen) for 10 min at 37° C., neutralized with 10% FBS in 1×PBS, and analyzed by flow cytometry. An additional experiment was performed to measure glucose uptake in C2Cl2 cells exposed to metformin, insulin and ellagic acid dihydrate 2 (batch 2). FIG. 5C. Glucose uptake in ellagic acid dihydrate treated cell culture was measured and compared to glucose uptake under insulin or ellagic acid treatment. […] Flow cytometry results were run in triplicate with 1000 cells per batch.

MEF cells [2] = experiment: Glucose uptake, 2-NBDG labeling, flow cytometry, MEFs
Description: as §1, with “Cellular assays were performed using mouse myoblast C2C12 cells and MEF cells. […] Increased” for “Increased”

O.O.O=c1oc2c(O)c(O)cc3c(=O)oc4c(O)c(O)cc1c4c23 [ellagic acid dihydrate]
p44/42 MAPK:Phos p44/42 MAPK ratio relative to vehicle (p44/42 MAPK): increase in p44/42 MAPK
timing of GLUT4-GFP/membrane process compared with insulin (GLUT4-GFP; C2C12, 4000 nM): slightly delayed
GLUT4-GFP localization (GLUT4-GFP; C2C12, 4000 nM exposure): decrease in nuclear GLUT4-GFP
ruffling of filopodia at the surface of the cell (GLUT4-GFP; C2C12, 4000 nM exposure): rapid ruffling of filopodia at the surface of the cell
dose effect for increasing glucose uptake (MEF cells [1]): dose effect for increasing glucose uptake
glucose uptake (2-NBDG signal) (MEF cells [1]; versus vehicle (Neg, 0.1% DMSO)): significantly greater than vehicle treated (Neg, 0.1% DMSO) or Insulin treated cells
increased glucose uptake (percent change relative to vehicle) (MEF cells [2]; 400 nM exposure, fibroblasts (MEFs), flow cytometry): 47%
dose effect for increasing glucose uptake (MEF cells [2]; MEFs, flow cytometry, 2-NBDG): dose effect for increasing glucose uptake
increase in glucose uptake compared with ellagic acid or insulin (MEF cells [2]; MEFs, flow cytometry, Example 5): significantly greater increase in glucose uptake than that seen in ellagic acid (EA) or insulin treatment
glucose uptake (2-NBDG signal) relative to vehicle (MEF cells [2]; MEFs, flow cytometry, vehicle 0.1% DMSO): significantly greater than vehicle treated
glucose uptake relative to insulin (MEF cells [2]; fibroblasts (MEFs), at most concentrations tested / equal concentrations, dihydrate): significantly more glucose uptake relative to insulin; also recorded: exceeded the uptake induced by insulin
